Data taken from patent publication US8008280B2, “Betulinol derivatives as anti-HIV agents” (priority 2004, dated 2011).
Like-named read-outs stand apart in the source and are kept apart here.

Assays:
[1] = Solubility in DMSO diluted with culture medium (GC, standard solubility curve); format: physicochemical
Procedure: The residue was dissolved in chloroform analyzed on GC.
Ethyl ether was then evaporated.

[2] = In vivo tolerability in mice with prostate cancer cell xenografts; conditions: final concentration of 22% ethanol and 2×10−3 mol per liter of betulonic acid
[3] = test system: another HIV-1 isolate; experiment: Effect on 174XCEM cells chronically infected with another HIV-1 isolate; format: cell-based; conditions: chronically infected 174XCEM cells; betulin diacetate single dose 1 μg/ml
Procedure: Agents were also evaluated for an effect on 174XCEM cells chronically infected with another HIV-1 isolate.

[4] = test system: HIV-1 IIIB isolate; experiment: HIV-1 inhibitory effect, p24 antigen capture ELISA, acutely infected 174XCEM cells; format: cell-based; conditions: 1 μg/ml (in DMSO); 4 days culture
[5] = test system: 174XCEM; experiment: Effect on cell viability, trypan blue dye exclusion; conditions: trypan blue dye exclusion at four days and seven days
Procedure: Human T-B hybridoma cell line 174XCEM was exposed to a low multiplicity of infection (“MOI”) (MOI=1.0) of stock HIV-1 IIIB isolate for 2 hours at 37° C., washed ×3 with phosphate buffered saline (“PBS”), then plated at 250,000 cells/well in the presence of various agents, shown in Table 10. Dimethyl sulfoxide (“DMSO”) buffer was used as a […] control. A commercially available synthetic peptide, thrombospondin peptide (“TSP”), known as having HIV-1 inhibitory activity, was used as an “inhibitory activity” control. Two HIV isolates were used, a patient isolate (“child HIV”), and the standard CXCR4 co-receptor utilizing isolate IIIB.
The cell samples were assessed by trypan blue dye exclusion at four days and seven days.

[6] = test system: carcinoma cell line CO-115 of the large intestine; conditions: carcinoma cell line CO-115 (Ukkonen et al.); cited from earlier work
[7] = test system: AZT-resistant strain; experiment: Anti-HIV activity against AZT-resistant patient isolates in MT-2 cells; format: cell-based
Description: These isolates were used to infect MT-2 cells in vitro.

[8] = Solubilization in PBS containing human γ-globulin, human albumin and ethanol; format: physicochemical; conditions: 1 × 10^−3 mol/L
[9] = Solubility of betulonic acid in human serum; format: physicochemical; conditions: 1.34 mg in 31 μL neat ethanol diluted with 700 μL human serum; 4.2% final ethanol
[10] = test system: cells; conditions: cited from earlier work
[11] = 1.0 mg in culture medium containing 20% DMSO

## C=C(C)C1CCC2(C(=O)NCCCCC(NC(=O)C(CCCCNC(=O)C34CCC(C(=C)C)C3[C@@H]3CC[C@H]5[C@]6(C)CCC(=O)C(C)(C)[C@H]6CC[C@]5(C)[C@@]3(C)CC4)NC(=O)OC(C)(C)C)C(=O)O)CC[C@]3(C)[C@H](CC[C@@H]4[C@@]5(C)CCC(=O)C(C)(C)[C@@H]5CC[C@]43C)C12 (stereo partly shown) [Boc-Dimer]
[1]; [11]
  Concentration of drug (mg/mL): 0.6 mg/mL
  Concentration of drug (mol/L): 0.0005 mol/L
[1]; calculated (nominal) concentration
  Con. in culture medium containing 20% DMSO: 0.0005 mol/L

## C=C(C)C1CCC2(C(=O)NCCCCC(NC(=O)OC(C)(C)C)C(=O)O)CC[C@]3(C)[C@H](CC[C@@H]4[C@@]5(C)CCC(=O)C(C)(C)[C@@H]5CC[C@]43C)C12 (stereo partly shown) [Boc-Monomer]
[2]
  tolerability: well tolerated
[1]
  Con. in culture medium containing 20% DMSO: 0.001 mol/L

## C=C(C)C1CCC2(CO)CC[C@]3(C)[C@H](CC[C@@H]4[C@@]5(C)CCC(O)C(C)(C)[C@@H]5CC[C@]43C)C12 (stereo partly drawn) [betulinol, lup-20(29)-ene-3β, 28-diol]
[3]
  inhibition (release of virus from chronically infected cells): minimal effect

## C=C(C)[C@@H]1CC[C@]2(COC(C)=O)CC[C@]3(C)[C@H](CC[C@@H]4[C@@]5(C)CC[C@H](O)C(C)(C)[C@@H]5CC[C@]43C)[C@@H]12 [28-acetoxy betulin, 28-Acetoxy Betulin]
[4]
  anti-HIV-1 activity (HIV-1 gag (p24) antigen, OD units, FIG. 6): anti-HIV-1 activity superior to that previously disclosed in the art for other betulinol derivatives
[5]
  effect on total cell number or cell viability: no effect on total cell number or cell viability

## C=C(C)C1CCC2(COC)CCC3(C)C(CCC4C5(C)CCC(OC)C(C)(C)C5CCC43C)C12 (stereo not shown) [betulin dimethyl ether, Betulin Dimethyl ether]
[4]
  anti-HIV-1 activity (HIV-1 gag (p24) antigen, OD units, FIG. 6): anti-HIV-1 activity superior to that previously disclosed in the art for other betulinol derivatives
[5]
  effect on total cell number or cell viability: no effect on total cell number or cell viability

## C=C(C)[C@@H]1CC[C@]2(C(=O)O)CC[C@]3(C)[C@H](CC[C@@H]4[C@@]5(C)CC[C@H](O)C(C)(C)[C@@H]5CC[C@]43C)[C@@H]12 [betulinic acid, Betulinic Acid]
[6]
  cytotoxic activity, LD 50: 0.375 mg/mL

## C=C(C)[C@@H]1CC[C@]2(COC(C)=O)CC[C@]3(C)[C@H](CC[C@@H]4[C@@]5(C)CC[C@H](OC(C)=O)C(C)(C)[C@@H]5CC[C@]43C)[C@@H]12 [betulin diacetate, Betulin Diacetate]
[3]
  inhibition (release of virus from chronically infected cells): 20%

## Cc1cn([C@H]2C[C@H](N=[N+]=[N-])[C@@H](CO)O2)c(=O)[nH]c1=O [AZT, 3′-azido-3′-deoxythymidine, reference compound]
[7]; day 5 (FIG. 14)
  inhibition in the HIV infection, AZT-resistant strain: ineffective

## C=C(C)[C@@H]1CC[C@]2(CO)CC[C@]3(C)[C@H](CC[C@@H]4[C@@]5(C)CC[C@H](OC(C)=O)C(C)(C)[C@@H]5CC[C@]43C)[C@@H]12 [3-acetoxy betulin, 3-Acetoxy Betulin]
[4]
  anti-HIV-1 activity (HIV-1 gag (p24) antigen, OD units, FIG. 6): anti-HIV-1 activity superior to that previously disclosed in the art for other betulinol derivatives
[5]
  effect on total cell number or cell viability: no effect on total cell number or cell viability

## C=C(C)[C@@H]1CC[C@]2(C=O)CC[C@]3(C)[C@H](CC[C@@H]4[C@@]5(C)CCC(=O)C(C)(C)[C@@H]5CC[C@]43C)[C@@H]12 [betulone aldehyde, Betulon Aldehyde]
[3]
  inhibition (release of virus from chronically infected cells): minimal effect

## C=C(C)C1CCC2(C(=O)O)CC[C@]3(C)[C@H](CC[C@@H]4[C@@]5(C)CCC(=O)C(C)(C)[C@@H]5CC[C@]43C)C12 (stereo partly shown) [betulonic acid, Betulonic Acid]
[7]; day 5 (FIG. 14)
  inhibition in the HIV infection, AZT-resistant strain: 44%
[7]; day 8 (FIG. 15)
  inhibition in the HIV infection, AZT-resistant strain: increased further
[2]
  tolerability: well tolerated
[8]; 1.0 mg, ethanol 220 μL, γ-globulin 1.48 mL, albumin 0.49 mL
  Observation: Cloudy
[8]; 1.3 mg, ethanol 280 μL, γ-globulin (27 mg/mL in PBS) 2.50 mL, albumin (42 mg/mL in PBS) 0 mL
  Observation: Suspension
[9]
  Observation: Clear Solution
[1]
  Con. in culture medium containing 20% DMSO: 0.001 mol/L
[1]; 3 mg in culture medium containing 10% FBS with 1% DMSO, supernatant after centrifugation
  amount of betulonic acid dissolved: 0.4 mg
[10]
  cytotoxicity, interfering with the proliferation of cells: cytotoxic
